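Cells were grown in 96-well plates and exposed to each compound for 48 hours at five concentrations; endpoints were interpolated linearly between bracketing concentrations, or set to the highest concentration if not reached. Here, GI50 denotes the concentration required for 50% inhibition of growth.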 Active and inactive are the calls of the source. Rule as the data show it: active = GI50 up to about 1.1 µM and inactive = higher.
Key:
Test in all cases: NCI-60 cell line screen, 48 h
[1] = system: TK-10
[2] = system: CCRF-CEM
[3] = system: MDA-MB-435
[4] = system: IGROV-1
[5] = system: MDA-MB-231
[6] = system: UO-31
[7] = system: K562
[8] = system: SW-620
[9] = system: T47D
[10] = system: UACC-62
[11] = system: SK-MEL-2
[12] = system: OVCAR-3
[13] = system: LOX IMVI
[14] = system: MCF7
[15] = system: SR
[16] = system: SF-268
[17] = system: NCI-H522
[18] = system: ACHN
[19] = system: SF-295
[20] = system: HCC 2998

Measured: GI50

O=Nc1c(-c2cccc([N+](=O)[O-])c2)nc2cnccn12
inactive: [1] 5.04 µM | [3] 20.1 µM | [4] 17.4 µM | [5] 13.8 µM | [6] 11.7 µM | [7] 18.3 µM | [8] 10.1 µM | [9] 15.1 µM | [10] 18.5 µM | [11] 27.9 µM | [12] 16.8 µM | [13] 15.2 µM | [14] 36 µM | [15] 2.2 µM | [16] 25.9 µM | [17] 14.6 µM | [18] 3.63 µM | [19] 43.4 µM
active: [2] 0.14 µM

CCOP(C)(=O)C(N)Cc1ccc(OC)c(OC)c1 (stereo not drawn)
inactive: [1] > 100 µM | [2] > 100 µM | [3] > 100 µM | [4] > 100 µM | [5] > 100 µM | [6] > 100 µM | [7] > 100 µM | [8] > 100 µM | [9] > 100 µM | [20] > 100 µM | [10] > 100 µM | [12] > 100 µM | [13] > 100 µM | [14] > 100 µM | [15] > 100 µM | [16] > 100 µM | [17] > 100 µM | [18] > 100 µM | [19] > 100 µM

O=c1n(CCO)nc2n1CCCN2
inactive: [1] > 100 µM | [2] > 100 µM | [3] > 100 µM | [4] > 100 µM | [5] > 100 µM | [6] > 100 µM | [7] > 100 µM | [8] > 100 µM | [9] > 100 µM | [20] > 100 µM | [10] > 100 µM | [11] > 100 µM | [12] > 100 µM | [13] > 100 µM | [14] > 100 µM | [15] > 100 µM | [16] > 100 µM | [18] > 100 µM | [19] > 100 µM

Cn1cnc([N+](=O)[O-])c1[Se]c1ncnc2nc[nH]c12
inactive: [1] 1.91 µM | [2] 9.51 µM | [3] 2 µM | [4] 3.38 µM | [5] 5 µM | [6] 3.65 µM | [7] 4.07 µM | [8] 10.3 µM | [9] 15.2 µM | [10] 1.77 µM | [11] 10.4 µM | [12] 2 µM | [14] 13.6 µM | [15] 2.04 µM | [16] 7.46 µM | [17] 3.57 µM | [18] 17.1 µM | [19] 4.21 µM
active: [13] 0.497 µM

C/C(=N\Nc1nc2ccccc2o1)c1cc2ccccc2cn1
inactive: [11] 2.98 µM
active: [2] < 0.01 µM | [3] 0.202 µM | [4] < 0.01 µM | [5] < 0.01 µM | [6] < 0.0147 µM | [7] < 0.01 µM | [8] < 0.01 µM | [9] < 0.01 µM | [10] 0.0775 µM | [12] < 0.01 µM | [14] < 0.01 µM | [15] 0.112 µM | [16] < 0.0188 µM | [17] < 0.01 µM | [18] < 0.01 µM | [19] 0.174 µM

Reference: ChEMBL document CHEMBL1201862, “PubChem BioAssay data set” (2004)
